How the values were obtained:
[1] = test system: Alopecurus myosuroides (ALOMY); experiment: Example A pre-emergence herbicidal activity, glasshouse pot test; format: in vivo; conditions: 480 h, evaluated 20 days after spraying, read-out: Pre-emergence activity ALOMY (100=total damage to plant; 0=no damage to plant)
How it was run: (§1)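 Read-out is visual plant damage (100 = total, 0 = none) assessed 20 days (pre-emergence) or 15 days (post-emergence) after spraying. Seeds in pots had been cultivated 1 day or 10 days respectively under controlled glasshouse conditions before application of an aqueous formulated spray.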

[2] = test system: Avena fatua (AVEFA); experiment: as above; format: in vivo; conditions: 480 h, evaluated 20 days after spraying, read-out: Pre-emergence activity AVEFA (100=total damage to plant; 0=no damage to plant)
How it was run: as §1

[3] = test system: Digitaria sanguinalis (DIGSA); experiment: as above; format: in vivo; conditions: 480 h, evaluated 20 days after spraying, read-out: Pre-emergence activity DIGSA (100=total damage to plant; 0=no damage to plant)
How it was run: as §1

[4] = test system: Echinochloa crus-galli (ECHCG); experiment: as above; format: in vivo; conditions: 480 h, evaluated 20 days after spraying, read-out: Pre-emergence activity ECHCG (100=total damage to plant; 0=no damage to plant)
How it was run: as §1

[5] = test system: Lolium perenne (LOLPE); experiment: as above; format: in vivo; conditions: 480 h, evaluated 20 days after spraying, read-out: Pre-emergence activity LOLPE (100=total damage to plant; 0=no damage to plant)
How it was run: as §1

[6] = test system: Setaria faberi (SETFA); experiment: as above; format: in vivo; conditions: 480 h, evaluated 20 days after spraying, read-out: Pre-emergence activity SETFA (100=total damage to plant; 0=no damage to plant)
How it was run: as §1

[7] = test system: Alopecurus myosuroides (ALOMY); experiment: Example A post-emergence herbicidal activity, glasshouse pot test; format: in vivo; conditions: 360 h, rate 125 g/ha, evaluated 15 days after spraying, read-out: Post-emergence activity ALOMY (100=total damage to plant; 0=no damage to plant)
How it was run: as §1

[8] = test system: Avena fatua (AVEFA); experiment: as above; format: in vivo; conditions: 360 h, rate 125 g/ha, evaluated 15 days after spraying, read-out: Post-emergence activity AVEFA (100=total damage to plant; 0=no damage to plant)
How it was run: as §1

[9] = test system: Digitaria sanguinalis (DIGSA); experiment: as above; format: in vivo; conditions: 360 h, rate 125 g/ha, evaluated 15 days after spraying, read-out: Post-emergence activity DIGSA (100=total damage to plant; 0=no damage to plant)
How it was run: as §1

[10] = test system: Echinochloa crus-galli (ECHCG); experiment: as above; format: in vivo; conditions: 360 h, rate 125 g/ha, evaluated 15 days after spraying, read-out: Post-emergence activity ECHCG (100=total damage to plant; 0=no damage to plant)
How it was run: as §1

[11] = test system: Lolium perenne (LOLPE); experiment: as above; format: in vivo; conditions: 360 h, rate 125 g/ha, evaluated 15 days after spraying, read-out: Post-emergence activity LOLPE (100=total damage to plant; 0=no damage to plant)
How it was run: as §1

[12] = test system: Setaria faberi (SETFA); experiment: as above; format: in vivo; conditions: 360 h, rate 125 g/ha, evaluated 15 days after spraying, read-out: Post-emergence activity SETFA (100=total damage to plant; 0=no damage to plant)
How it was run: as §1

[13] = test system: Alopecurus myosuroides (ALOMY); experiment: Example B pre-emergence herbicidal activity, glasshouse pot test; format: in vivo; conditions: 312 h, rate 250 g/ha, evaluated after 13 days, read-out: Pre-emergence activity ALOMY (100=total damage to plant; 0=no damage to plant)
How it was run: (§2)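 Pot-grown plants sprayed one day after sowing (pre-emergence) or after 8 days (post-emergence) with compound in acetone/water 50:50 containing 0.5% Tween 20. Glasshouse at 24/16 °C day/night, 14 h light, 65% humidity; damage scored after 13 days, 0 = none to 100 = total.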

[14] = test system: Amaranthus retroflexus (AMARE); experiment: as above; format: in vivo; conditions: 312 h, rate 250 g/ha, evaluated after 13 days, read-out: Pre-emergence activity AMARE (100=total damage to plant; 0=no damage to plant)
How it was run: as §2

[15] = test system: Avena fatua (AVEFA); experiment: as above; format: in vivo; conditions: 312 h, rate 250 g/ha, evaluated after 13 days, read-out: Pre-emergence activity AVEFA (100=total damage to plant; 0=no damage to plant)
How it was run: as §2

[16] = test system: Echinochloa crus-galli (ECHCG); experiment: as above; format: in vivo; conditions: 312 h, rate 250 g/ha, evaluated after 13 days, read-out: Pre-emergence activity ECHCG (100=total damage to plant; 0=no damage to plant)
How it was run: as §2

[17] = test system: Setaria faberi (SETFA); experiment: as above; format: in vivo; conditions: 312 h, rate 250 g/ha, evaluated after 13 days, read-out: Pre-emergence activity SETFA (100=total damage to plant; 0=no damage to plant)
How it was run: as §2

[18] = test system: Alopecurus myosuroides (ALOMY); experiment: Example B post-emergence herbicidal activity, glasshouse pot test; format: in vivo; conditions: 312 h, rate 250 g/ha, evaluated after 13 days, read-out: Post-emergence activity ALOMY (100=total damage to plant; 0=no damage to plant)
How it was run: as §2

[19] = test system: Amaranthus retroflexus (AMARE); experiment: as above; format: in vivo; conditions: 312 h, rate 250 g/ha, evaluated after 13 days, read-out: Post-emergence activity AMARE (100=total damage to plant; 0=no damage to plant)
How it was run: as §2

[20] = test system: Avena fatua (AVEFA); experiment: as above; format: in vivo; conditions: 312 h, rate 250 g/ha, evaluated after 13 days, read-out: Post-emergence activity AVEFA (100=total damage to plant; 0=no damage to plant)
How it was run: as §2

[21] = test system: Echinochloa crus-galli (ECHCG); experiment: as above; format: in vivo; conditions: 312 h, rate 250 g/ha, evaluated after 13 days, read-out: Post-emergence activity ECHCG (100=total damage to plant; 0=no damage to plant)
How it was run: as §2

[22] = test system: Setaria faberi (SETFA); experiment: as above; format: in vivo; conditions: 312 h, rate 250 g/ha, evaluated after 13 days, read-out: Post-emergence activity SETFA (100=total damage to plant; 0=no damage to plant)
How it was run: as §2

## CCc1ccc(-c2ccc(F)cc2)cc1C1=C(O)[C@@]2(C)CC[C@H](O2)C1=O [Compound A-38]
[1]; rate 250 g/ha
  pest or weed control at 250 g/ha: 50%
[2]; rate 250 g/ha
  pest or weed control at 250 g/ha: 10%
[3]; rate 250 g/ha
  pest or weed control at 250 g/ha: 30%
[4]; rate 250 g/ha
  pest or weed control at 250 g/ha: 70%
[5]; rate 250 g/ha
  pest or weed control at 250 g/ha: 60%
[6]; rate 250 g/ha
  pest or weed control at 250 g/ha: 90%
[7]
  pest or weed control at 125 g/ha: 50%
[8]
  pest or weed control at 125 g/ha: 60%
[9]
  pest or weed control at 125 g/ha: 70%
[10]
  pest or weed control at 125 g/ha: 90%
[11]
  pest or weed control at 125 g/ha: 0%
[12]
  pest or weed control at 125 g/ha: 80%
other
  melting point: 165 to 167 °C

## CCc1ccc(-c2ccc(Cl)cc2)cc1C1=C(O)C(C)(C)OC(C)(COC)C1=O (stereo not shown) [Compound A-99]
[13]
  pest or weed control at 250 g/ha: 80%
[14]
  pest or weed control at 250 g/ha: 20%
[15]
  pest or weed control at 250 g/ha: 50%
[16]
  pest or weed control at 250 g/ha: 100%
[17]
  pest or weed control at 250 g/ha: 100%
[18]
  pest or weed control at 250 g/ha: 90%
[19]
  pest or weed control at 250 g/ha: 0%
[20]
  pest or weed control at 250 g/ha: 90%
[21]
  pest or weed control at 250 g/ha: 100%
[22]
  pest or weed control at 250 g/ha: 100%
other
  melting point: 123 to 124 °C

## CCc1ccc(-c2ccc(Cl)cc2)cc1C1=C(O)C2CCCC(C1=O)C2=O (stereo not shown) [Compound B-53]
other
  melting point: 79.5 °C

## COC(=O)OC1=C(c2cc(-c3ccc(Cl)cc3)ccc2C)C(=O)C(C)(C)OC1 [Compound D-5]
[1]; rate 500 g/ha
  pest or weed control at 500 g/ha: 0%
[2]; rate 500 g/ha
  pest or weed control at 500 g/ha: 20%
[3]; rate 500 g/ha
  pest or weed control at 500 g/ha: 60%
[4]; rate 500 g/ha
  pest or weed control at 500 g/ha: 50%
[5]; rate 500 g/ha
  pest or weed control at 500 g/ha: 0%
[6]; rate 500 g/ha
  pest or weed control at 500 g/ha: 20%
[7]
  pest or weed control at 125 g/ha: 10%
[8]
  pest or weed control at 125 g/ha: 40%
[9]
  pest or weed control at 125 g/ha: 20%
[10]
  pest or weed control at 125 g/ha: 60%
[11]
  pest or weed control at 125 g/ha: 40%
[12]
  pest or weed control at 125 g/ha: 70%

From US8680012B2, “4-phenyl-pyrane-3,5-diones,4-phenyl-thiopyrane-3,6-diones and cyclohexanetriones as novel herbicides” (Syngenta Crop Protection LLC, priority 2006, dated 2014)
